Where no end group is shown, it is not given here.
Columns and labels:
α4β1 integrin = α4β1 integrin (Homo sapiens, UniProt P05556+P13612); experiment: α4β1 integrin-dependent Mn+2 stimulated M16B adhesion to rCS1; type: cell-based; design: endogenous in cells; details: soluble peptide
α5β1 integrin = biological target: T1, α5β1 integrin (Homo sapiens, UniProt P05556+P08648); experiment: Inhibition of α5β1 integrin dependent Mn+2 stimulated adhesion of K562 cells to fibronectin (FN); type: cell-based
T1 construct: erythroleukemic cell line K562, which expresses α5β1 but not α4β1 integrin; endogenous in cells; host or cells: K562 cells
Protocol: The cell adhesion assay was carried out as described above. […] Each data point represents the mean of triplicate determinations and the error bars represent the standard deviation of the mean. The solid black line represents adhesion to the negative control substrate, BSA.

α2β1 and α3β1 integrin = experiment: Inhibition of α2β1, α3β1 integrin dependent human melanoma M14#5 cell adhesion to laminin and type IV collagen; type: cell-based; details: 0.5 mg/ml peptide (0.42 mM), 30 minutes
Protocol: An experiment was conducted to examine the ability of FN-C/H V+Y (SEQ ID NO:1) to inhibit α2β1, α3β1 integrin dependent cell adhesion using an assay based on human melanoma cells (M14#5).
Laminin, type IV collagen and BSA were coated overnight in a 96 well microtiter plate at 10 μg/ml and blocked with 0.3% BSA. M14#5 cells were preincubated with 0.5 mg/ml of peptide (equivalent to 0.42 mM FN-C/H V and scrambled FN-C/H V and 0.17 mM CSI) and allowed to adhere to substrates for 30 minutes.

α1β2 (LFA-1) integrin = biological target: T2, α1β2 (LFA-1) integrin (Homo sapiens, UniProt P05107+P20701); experiment: α1β2 (LFA-1) integrin dependent M16B adhesion to rICAM; type: cell-based
T2 construct: the B-cell line M16B (which both express functional α4β1 and α1β2 integrin); endogenous in cells; host or cells: M16B B-cell line
Protocol: To determine whether inhibition of adhesion by soluble FN-C/H V is specific for b1 integrins, the ability of this peptide to inhibit β2 integrin-dependent adhesion was also evaluated.

[1] = tested on: peripheral blood mononuclear cells and spleen cells; details: reported, Wahl et al.; cited from earlier work
[2] = in vivo rat model, reported; cited from earlier work
VCAM = details: reported; cited from earlier work

T1 sequence (P08648 42-894 limits assumed): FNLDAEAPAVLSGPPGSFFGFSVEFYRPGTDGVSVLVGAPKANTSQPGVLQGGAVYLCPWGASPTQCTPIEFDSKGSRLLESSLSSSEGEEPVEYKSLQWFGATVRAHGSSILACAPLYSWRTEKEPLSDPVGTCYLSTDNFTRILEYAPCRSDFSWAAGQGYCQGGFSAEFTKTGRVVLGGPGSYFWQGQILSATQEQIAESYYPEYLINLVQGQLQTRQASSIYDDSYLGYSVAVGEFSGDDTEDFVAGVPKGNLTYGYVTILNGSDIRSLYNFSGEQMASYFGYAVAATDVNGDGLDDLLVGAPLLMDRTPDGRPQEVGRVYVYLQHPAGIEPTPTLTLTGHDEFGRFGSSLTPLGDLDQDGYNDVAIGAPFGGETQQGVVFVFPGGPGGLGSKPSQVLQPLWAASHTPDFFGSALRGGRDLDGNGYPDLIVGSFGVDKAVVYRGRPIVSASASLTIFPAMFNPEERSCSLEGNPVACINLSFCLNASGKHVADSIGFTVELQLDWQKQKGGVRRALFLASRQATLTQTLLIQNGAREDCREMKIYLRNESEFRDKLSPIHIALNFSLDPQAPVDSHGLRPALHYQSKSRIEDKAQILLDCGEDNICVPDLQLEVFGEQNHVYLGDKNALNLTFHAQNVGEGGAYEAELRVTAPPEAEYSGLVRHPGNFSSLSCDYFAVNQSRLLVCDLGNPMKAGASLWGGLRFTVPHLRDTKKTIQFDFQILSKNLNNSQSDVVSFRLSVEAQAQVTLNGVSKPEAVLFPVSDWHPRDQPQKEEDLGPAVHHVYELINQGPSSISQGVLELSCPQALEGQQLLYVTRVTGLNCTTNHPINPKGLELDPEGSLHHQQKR
T1 sequence (P08648 895-1049 limits assumed): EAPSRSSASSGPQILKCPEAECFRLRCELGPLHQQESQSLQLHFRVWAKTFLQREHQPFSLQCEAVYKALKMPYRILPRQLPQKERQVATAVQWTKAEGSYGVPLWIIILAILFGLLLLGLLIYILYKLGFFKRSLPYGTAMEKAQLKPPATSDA
T1 sequence (P05556 21-798): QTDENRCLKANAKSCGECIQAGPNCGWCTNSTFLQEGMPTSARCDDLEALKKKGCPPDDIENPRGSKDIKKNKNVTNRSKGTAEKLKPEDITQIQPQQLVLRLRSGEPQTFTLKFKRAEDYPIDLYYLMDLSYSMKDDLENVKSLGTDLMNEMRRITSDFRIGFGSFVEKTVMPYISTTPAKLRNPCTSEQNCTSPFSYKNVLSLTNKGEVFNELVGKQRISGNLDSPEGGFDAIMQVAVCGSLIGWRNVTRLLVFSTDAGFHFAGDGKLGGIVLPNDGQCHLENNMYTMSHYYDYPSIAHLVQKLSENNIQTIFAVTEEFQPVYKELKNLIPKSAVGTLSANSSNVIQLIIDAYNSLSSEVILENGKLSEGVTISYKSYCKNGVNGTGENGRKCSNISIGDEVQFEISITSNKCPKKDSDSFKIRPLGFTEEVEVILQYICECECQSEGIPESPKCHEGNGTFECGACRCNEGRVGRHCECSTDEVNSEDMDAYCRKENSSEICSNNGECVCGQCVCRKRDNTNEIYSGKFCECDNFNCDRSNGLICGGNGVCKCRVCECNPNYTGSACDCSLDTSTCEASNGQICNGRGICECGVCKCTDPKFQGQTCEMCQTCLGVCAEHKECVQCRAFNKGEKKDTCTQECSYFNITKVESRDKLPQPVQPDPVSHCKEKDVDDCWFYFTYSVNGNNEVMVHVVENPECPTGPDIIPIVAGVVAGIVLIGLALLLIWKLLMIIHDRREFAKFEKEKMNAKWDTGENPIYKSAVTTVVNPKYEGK
Sequence of α4β1 integrin (P13612 34-1032): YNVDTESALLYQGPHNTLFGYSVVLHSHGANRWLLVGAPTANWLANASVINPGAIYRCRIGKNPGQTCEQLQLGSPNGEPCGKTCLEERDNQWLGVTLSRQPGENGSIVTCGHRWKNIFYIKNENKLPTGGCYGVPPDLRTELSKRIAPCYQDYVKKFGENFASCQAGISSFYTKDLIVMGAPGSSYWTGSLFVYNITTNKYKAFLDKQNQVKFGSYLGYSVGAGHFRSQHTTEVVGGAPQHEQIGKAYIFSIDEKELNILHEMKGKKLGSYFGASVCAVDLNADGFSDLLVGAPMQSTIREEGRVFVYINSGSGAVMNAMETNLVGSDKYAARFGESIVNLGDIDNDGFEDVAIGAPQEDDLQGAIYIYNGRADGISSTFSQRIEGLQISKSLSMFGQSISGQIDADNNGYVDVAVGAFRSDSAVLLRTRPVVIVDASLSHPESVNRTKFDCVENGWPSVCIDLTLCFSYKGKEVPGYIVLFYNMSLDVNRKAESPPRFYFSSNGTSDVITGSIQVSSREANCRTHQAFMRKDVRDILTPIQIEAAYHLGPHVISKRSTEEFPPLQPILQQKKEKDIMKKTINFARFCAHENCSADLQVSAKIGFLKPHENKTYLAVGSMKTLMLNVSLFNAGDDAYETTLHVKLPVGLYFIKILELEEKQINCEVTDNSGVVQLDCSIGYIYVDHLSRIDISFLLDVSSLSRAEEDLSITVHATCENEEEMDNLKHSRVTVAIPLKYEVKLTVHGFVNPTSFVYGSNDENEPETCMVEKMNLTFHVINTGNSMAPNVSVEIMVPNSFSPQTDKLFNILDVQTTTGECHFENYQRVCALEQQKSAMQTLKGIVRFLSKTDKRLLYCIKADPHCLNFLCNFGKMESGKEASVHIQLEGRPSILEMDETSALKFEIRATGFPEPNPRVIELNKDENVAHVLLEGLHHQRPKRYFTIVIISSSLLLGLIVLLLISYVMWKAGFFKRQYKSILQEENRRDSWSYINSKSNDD
Sequence of α4β1 integrin (P05556 21-798): as the sequence (P05556 21-798) above
T2 sequence (P20701 26-1170): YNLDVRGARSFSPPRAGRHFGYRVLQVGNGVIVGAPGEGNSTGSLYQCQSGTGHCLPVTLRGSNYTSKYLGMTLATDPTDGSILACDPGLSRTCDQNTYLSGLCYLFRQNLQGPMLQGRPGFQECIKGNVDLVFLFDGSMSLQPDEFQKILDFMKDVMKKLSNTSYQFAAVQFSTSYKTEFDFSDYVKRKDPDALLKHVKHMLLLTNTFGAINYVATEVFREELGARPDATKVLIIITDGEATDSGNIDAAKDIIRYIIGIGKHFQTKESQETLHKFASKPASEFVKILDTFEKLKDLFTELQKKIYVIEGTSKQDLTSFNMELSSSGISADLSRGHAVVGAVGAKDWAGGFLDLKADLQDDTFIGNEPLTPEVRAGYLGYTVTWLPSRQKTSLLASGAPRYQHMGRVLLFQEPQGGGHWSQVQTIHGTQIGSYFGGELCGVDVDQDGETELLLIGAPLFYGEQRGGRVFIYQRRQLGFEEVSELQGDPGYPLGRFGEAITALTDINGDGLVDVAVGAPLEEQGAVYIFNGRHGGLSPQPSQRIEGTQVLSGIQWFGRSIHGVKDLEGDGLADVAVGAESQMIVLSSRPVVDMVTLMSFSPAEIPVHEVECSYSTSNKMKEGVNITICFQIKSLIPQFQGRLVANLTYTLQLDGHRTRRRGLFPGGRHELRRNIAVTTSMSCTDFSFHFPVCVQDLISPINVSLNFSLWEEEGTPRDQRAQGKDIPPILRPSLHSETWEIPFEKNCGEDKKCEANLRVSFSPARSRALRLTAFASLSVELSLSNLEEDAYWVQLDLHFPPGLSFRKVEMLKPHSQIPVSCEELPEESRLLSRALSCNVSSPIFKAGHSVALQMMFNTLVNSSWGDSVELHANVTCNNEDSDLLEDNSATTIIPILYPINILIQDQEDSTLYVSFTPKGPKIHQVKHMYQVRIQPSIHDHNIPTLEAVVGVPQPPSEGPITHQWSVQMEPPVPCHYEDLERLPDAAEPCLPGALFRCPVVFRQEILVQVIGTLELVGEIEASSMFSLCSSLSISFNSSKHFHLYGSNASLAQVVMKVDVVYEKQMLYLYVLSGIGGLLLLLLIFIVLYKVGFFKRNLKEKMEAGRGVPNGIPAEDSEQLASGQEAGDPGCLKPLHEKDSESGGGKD
T2 sequence (P05107 23-769): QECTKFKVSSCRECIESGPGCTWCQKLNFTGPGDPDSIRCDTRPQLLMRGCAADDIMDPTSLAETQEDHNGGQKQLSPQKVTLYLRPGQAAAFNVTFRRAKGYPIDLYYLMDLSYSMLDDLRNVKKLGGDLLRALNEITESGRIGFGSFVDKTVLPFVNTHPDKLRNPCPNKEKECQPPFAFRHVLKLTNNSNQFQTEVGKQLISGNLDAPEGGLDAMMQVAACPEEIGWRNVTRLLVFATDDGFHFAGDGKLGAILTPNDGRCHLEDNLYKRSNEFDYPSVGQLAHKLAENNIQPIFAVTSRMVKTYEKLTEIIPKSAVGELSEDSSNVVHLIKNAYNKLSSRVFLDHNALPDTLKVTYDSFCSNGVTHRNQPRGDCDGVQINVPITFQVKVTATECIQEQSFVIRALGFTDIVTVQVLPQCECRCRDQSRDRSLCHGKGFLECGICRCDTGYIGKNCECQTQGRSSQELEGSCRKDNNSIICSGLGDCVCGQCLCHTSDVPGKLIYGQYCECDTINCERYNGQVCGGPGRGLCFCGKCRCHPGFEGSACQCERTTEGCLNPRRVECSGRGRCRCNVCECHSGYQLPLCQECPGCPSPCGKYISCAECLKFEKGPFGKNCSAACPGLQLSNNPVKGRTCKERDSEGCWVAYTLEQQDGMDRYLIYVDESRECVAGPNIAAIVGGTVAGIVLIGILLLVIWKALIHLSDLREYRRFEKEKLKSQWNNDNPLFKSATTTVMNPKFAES

With “DELPQLVTLPHPNLHGPEILDVPST (listed as Homo sapiens) [CS1, fibronectin residues 1961-1985]” the “inhibition of M16B adhesion to rCS1” value (α4β1 integrin) was “completely inhibited”.

For WQPPRARIY-OH [SEQ ID NO:1], the “inhibition of K562 adhesion to FN at the maximal concentration tested” value (α5β1 integrin; 0.84 mM peptide, K562 cells stimulated with 1 mM MnCl2) was “completely inhibited”, the IC50 (α5β1 integrin; K562 cells stimulated with 1 mM MnCl2, adhesion to FN, read-out: half-maximal inhibitory concentration) was 200 µM and the “inhibition of M14#5 cell adhesion to laminin” value (α2β1 and α3β1 integrin; laminin coated substrate) was “inhibited”. The “inhibition of M14#5 cell adhesion to type IV collagen” value (α2β1 and α3β1 integrin; type IV collagen coated substrate) was “inhibited”, the “inhibition of M16B adhesion to rICAM” value (α1β2 (LFA-1) integrin) was “not inhibited” and the “inhibition of leukocyte adhesion to fibronectin in vitro” value [1] was “inhibit leukocyte adhesion to fibronectin in vitro”. For the same substance, the anti-inflammatory properties [2] was “exhibit anti-inflammatory properties”, the “inhibition of adhesion to VCAM” value (VCAM) was “inhibit adhesion to VCAM” and the “inhibition of M16B adhesion to rCS1” value (α4β1 integrin) was “completely inhibited”.

For “YEKPGSPPREV-VPRPRPGVY (YEKPGSPPREVVPRPRPGVY; listed as Homo sapiens) [FN-C/H I+Y]”, the “inhibition of leukocyte adhesion to fibronectin in vitro” value [1] is listed as “inhibit leukocyte adhesion to fibronectin in vitro” and the anti-inflammatory properties [2] is listed as “exhibit anti-inflammatory properties”.

Reference: US6849712B1, “Peptides with β1 integrin subunit dependent cell adhesion modulating activity” (Regents of the University of Minnesota, priority 1998, dated 2005)
